According to paper PMC11062922 (Nature Chemical Biology, 2023):

Key:
[1] = target: T1, ABL2 (Homo sapiens, UniProt P42684); assay: Kinobeads two-dose competition binding: ABL2; settings: sheet CATDS matrix 2; Gene Name ABL2
T1 construct: endogenous in cells

[2] = target: T2, ACOX1 (Homo sapiens, UniProt Q15067); assay: Kinobeads two-dose competition binding: ACOX1; settings: sheet CATDS matrix 2; Gene Name ACOX1;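 also: competition of compounds with immobilized broad-spectrum kinase inhibitor beads in cell lysate at 100 and 1,000 nM, 45 min at 4 °C, bead-bound protein quantified by label-free MS versus DMSO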
T2 construct: endogenous in cells
T2 sequence (Q15067 1-660): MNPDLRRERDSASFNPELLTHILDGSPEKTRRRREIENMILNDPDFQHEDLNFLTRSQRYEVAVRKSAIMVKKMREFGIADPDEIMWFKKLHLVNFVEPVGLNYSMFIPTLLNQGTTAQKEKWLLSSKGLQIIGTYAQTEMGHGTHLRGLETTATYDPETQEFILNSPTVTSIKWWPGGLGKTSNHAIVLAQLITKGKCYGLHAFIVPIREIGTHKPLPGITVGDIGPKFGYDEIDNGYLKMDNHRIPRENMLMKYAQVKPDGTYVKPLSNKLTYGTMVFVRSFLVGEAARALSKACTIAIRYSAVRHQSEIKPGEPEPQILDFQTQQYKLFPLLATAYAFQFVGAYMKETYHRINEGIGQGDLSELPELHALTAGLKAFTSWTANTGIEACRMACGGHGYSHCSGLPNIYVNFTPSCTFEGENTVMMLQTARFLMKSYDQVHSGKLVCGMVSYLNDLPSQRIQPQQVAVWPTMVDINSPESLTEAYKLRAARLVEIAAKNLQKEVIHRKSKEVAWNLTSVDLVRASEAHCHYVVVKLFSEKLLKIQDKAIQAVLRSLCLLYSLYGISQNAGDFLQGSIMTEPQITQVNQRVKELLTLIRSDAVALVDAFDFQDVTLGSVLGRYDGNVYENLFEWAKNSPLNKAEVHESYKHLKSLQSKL

[3] = target: T3, ACAD11 (Homo sapiens, UniProt Q709F0); assay: Kinobeads two-dose competition binding: ACAD11; settings: sheet CATDS matrix 2; Gene Name ACAD11
T3 construct: endogenous in cells
T3 sequence (Q709F0 1-780): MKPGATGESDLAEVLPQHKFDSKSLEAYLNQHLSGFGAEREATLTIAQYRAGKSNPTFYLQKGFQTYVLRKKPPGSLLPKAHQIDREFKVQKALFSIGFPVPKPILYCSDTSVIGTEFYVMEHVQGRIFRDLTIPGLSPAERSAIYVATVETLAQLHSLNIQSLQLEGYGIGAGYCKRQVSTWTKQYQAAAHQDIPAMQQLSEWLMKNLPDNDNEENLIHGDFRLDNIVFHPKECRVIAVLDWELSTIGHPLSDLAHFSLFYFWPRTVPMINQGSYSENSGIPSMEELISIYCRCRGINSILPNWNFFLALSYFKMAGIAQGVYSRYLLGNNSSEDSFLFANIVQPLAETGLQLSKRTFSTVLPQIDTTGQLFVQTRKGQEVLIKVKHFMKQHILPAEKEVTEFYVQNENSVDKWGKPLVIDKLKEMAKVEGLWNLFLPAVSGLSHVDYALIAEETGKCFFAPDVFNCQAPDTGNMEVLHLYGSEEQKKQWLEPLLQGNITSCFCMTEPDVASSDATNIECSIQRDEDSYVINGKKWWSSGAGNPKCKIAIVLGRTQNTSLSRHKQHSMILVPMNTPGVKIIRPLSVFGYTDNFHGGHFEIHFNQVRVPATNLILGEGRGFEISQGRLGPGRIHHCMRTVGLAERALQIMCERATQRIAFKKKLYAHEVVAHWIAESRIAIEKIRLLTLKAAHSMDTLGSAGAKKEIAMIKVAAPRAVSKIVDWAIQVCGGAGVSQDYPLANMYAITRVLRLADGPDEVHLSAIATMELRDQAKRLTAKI

[4] = target: T4, AAK1 (Homo sapiens, UniProt Q2M2I8); assay: Kinobeads two-dose competition binding: AAK1; settings: for CATDS: sheet CATDS matrix 2, Gene Name AAK1; for potency estimated from few doses: sheet "Kinobeads Drugmatrix - all", unit inferred, same values below 1000 recur in sheet "nanomolar", read-out: Kinobeads Drugmatrix - all: apparent Kd, AAK1;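 as to all read-outs here: kinobeads competition pulldown from cell lysate, compound preincubated 45 min at 4 °C, bead-bound protein measured by label-free mass spectrometry against DMSO vehicle control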
T4 construct: to maximize the representation of endogenous proteins; endogenous in cells
T4 sequence (Q2M2I8 whole entry): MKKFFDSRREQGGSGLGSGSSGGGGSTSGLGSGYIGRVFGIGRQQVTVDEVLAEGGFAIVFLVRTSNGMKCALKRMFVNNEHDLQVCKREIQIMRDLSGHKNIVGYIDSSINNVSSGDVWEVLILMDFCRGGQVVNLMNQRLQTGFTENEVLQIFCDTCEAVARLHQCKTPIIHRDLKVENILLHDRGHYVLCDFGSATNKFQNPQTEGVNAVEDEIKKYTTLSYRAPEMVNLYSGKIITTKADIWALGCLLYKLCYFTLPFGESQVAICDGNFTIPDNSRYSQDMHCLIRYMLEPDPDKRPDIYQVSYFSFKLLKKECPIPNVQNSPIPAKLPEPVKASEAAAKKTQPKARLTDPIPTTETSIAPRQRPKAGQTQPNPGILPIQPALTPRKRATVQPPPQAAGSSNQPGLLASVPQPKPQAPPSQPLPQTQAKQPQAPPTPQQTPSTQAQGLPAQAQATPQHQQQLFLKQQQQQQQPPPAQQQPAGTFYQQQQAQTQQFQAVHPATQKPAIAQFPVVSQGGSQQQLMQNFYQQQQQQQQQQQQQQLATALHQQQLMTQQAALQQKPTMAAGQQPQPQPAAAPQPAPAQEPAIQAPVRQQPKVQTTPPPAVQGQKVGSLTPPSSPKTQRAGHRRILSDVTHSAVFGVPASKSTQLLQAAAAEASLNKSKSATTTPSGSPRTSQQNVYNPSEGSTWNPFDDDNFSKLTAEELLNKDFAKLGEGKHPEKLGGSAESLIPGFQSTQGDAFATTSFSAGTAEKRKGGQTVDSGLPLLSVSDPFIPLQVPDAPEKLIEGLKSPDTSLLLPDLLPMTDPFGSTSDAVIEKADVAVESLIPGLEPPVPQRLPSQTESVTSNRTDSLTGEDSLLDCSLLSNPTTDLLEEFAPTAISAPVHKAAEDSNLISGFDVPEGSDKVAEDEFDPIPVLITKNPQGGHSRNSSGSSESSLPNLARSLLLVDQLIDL

[5] = target: ABL1 (Homo sapiens, UniProt P00519); assay: Kinobeads two-dose competition binding: ABL1; settings: sheet CATDS matrix 2; Gene Name ABL1
Sequence of ABL1 (P00519 28-1130 limits assumed): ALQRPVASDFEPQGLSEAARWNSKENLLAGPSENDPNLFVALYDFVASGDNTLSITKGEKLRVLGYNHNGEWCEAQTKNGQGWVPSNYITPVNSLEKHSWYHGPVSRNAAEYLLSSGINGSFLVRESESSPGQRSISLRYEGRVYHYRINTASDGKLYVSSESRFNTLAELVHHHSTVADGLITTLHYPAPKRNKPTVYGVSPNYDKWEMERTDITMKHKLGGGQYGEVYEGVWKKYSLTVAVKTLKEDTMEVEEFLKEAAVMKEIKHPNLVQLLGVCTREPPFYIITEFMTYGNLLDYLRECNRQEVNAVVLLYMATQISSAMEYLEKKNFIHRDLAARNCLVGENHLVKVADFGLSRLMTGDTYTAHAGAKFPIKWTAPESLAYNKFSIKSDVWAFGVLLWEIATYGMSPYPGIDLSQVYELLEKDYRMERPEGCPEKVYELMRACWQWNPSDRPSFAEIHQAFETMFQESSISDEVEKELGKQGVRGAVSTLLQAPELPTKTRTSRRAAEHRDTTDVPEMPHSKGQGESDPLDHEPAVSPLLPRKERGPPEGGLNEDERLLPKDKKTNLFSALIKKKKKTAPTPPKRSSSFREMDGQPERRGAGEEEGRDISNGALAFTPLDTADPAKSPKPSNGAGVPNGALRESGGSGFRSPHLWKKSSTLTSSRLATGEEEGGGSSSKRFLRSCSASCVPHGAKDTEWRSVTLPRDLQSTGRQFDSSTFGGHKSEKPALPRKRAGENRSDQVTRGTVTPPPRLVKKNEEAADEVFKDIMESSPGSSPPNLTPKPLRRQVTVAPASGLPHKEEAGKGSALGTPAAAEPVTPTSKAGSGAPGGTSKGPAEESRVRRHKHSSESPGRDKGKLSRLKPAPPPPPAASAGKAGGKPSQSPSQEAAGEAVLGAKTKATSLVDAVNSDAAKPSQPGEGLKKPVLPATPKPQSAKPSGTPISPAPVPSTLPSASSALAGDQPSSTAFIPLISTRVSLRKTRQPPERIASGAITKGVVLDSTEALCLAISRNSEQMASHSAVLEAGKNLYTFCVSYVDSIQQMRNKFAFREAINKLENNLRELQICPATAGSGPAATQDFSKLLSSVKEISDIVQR

T1 sequence (P42684 whole entry): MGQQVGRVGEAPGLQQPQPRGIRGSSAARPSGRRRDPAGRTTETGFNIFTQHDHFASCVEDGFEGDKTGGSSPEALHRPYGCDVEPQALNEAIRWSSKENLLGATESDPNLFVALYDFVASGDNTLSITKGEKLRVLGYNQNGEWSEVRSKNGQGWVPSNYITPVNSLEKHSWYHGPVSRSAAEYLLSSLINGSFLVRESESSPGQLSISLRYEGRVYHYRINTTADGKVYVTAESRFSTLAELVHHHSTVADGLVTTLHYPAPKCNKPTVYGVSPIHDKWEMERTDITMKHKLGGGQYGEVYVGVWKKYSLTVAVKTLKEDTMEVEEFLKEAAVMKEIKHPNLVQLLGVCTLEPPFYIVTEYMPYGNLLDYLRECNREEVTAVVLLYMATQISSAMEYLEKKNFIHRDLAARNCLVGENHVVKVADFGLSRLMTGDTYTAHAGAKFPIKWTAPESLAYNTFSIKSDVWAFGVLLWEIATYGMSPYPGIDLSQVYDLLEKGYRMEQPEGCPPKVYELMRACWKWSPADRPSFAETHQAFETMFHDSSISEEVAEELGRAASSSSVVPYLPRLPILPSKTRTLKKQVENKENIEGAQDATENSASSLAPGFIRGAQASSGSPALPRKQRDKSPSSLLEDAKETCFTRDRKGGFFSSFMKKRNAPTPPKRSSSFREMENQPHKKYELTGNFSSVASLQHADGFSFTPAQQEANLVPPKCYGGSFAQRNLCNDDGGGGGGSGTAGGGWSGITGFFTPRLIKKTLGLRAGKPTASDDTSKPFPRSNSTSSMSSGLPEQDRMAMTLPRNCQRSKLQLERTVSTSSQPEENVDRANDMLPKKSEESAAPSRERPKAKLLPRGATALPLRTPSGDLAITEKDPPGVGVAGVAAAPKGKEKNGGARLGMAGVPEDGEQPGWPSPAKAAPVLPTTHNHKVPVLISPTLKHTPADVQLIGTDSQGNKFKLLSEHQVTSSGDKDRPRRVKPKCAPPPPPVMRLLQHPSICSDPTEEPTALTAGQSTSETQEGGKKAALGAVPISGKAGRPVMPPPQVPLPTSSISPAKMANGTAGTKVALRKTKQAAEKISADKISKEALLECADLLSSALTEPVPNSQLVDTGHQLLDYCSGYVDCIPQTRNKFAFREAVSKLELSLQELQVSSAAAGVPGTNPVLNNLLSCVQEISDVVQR

Cc1cc(Nc2ncc(Cl)c(Nc3ccccc3S(=O)(=O)C(C)C)n2)c(OC(C)C)cc1C1CCNCC1 [Ceritinib, reference compound]
CATDS [1]: 0
CATDS [2]: 0
CATDS [3]: 0
CATDS [4]: 0
CATDS [5]: 0

O=C(O[C@H]1CN[C@H](C#Cc2cc3ncnc(Nc4ccc5c(cnn5Cc5ccccc5)c4)c3s2)C1)N1CCOCC1 [GSK200398A_KCGS]
CATDS [1]: 0
CATDS [2]: 0
CATDS [3]: 0
CATDS [4]: 0
CATDS [5]: 0

COc1cc(N2CCC(N3CCN(C)CC3)CC2)ccc1Nc1ncc(Cl)c(Nc2ccccc2P(C)(C)=O)n1 [Brigatinib, reference compound]
CATDS [1]: 0
CATDS [2]: 0
CATDS [3]: 0
CATDS [4]: 0.01731
CATDS [5]: 0

Nc1ncc(-c2ccc3nccc(-c4ccncc4)c3c2)cc1S(=O)(=O)N1CCOCC1 [GSK1627798A]
CATDS [1]: 0
CATDS [2]: 0
CATDS [3]: 0
CATDS [4]: 0
CATDS [5]: 0

C=CC(=O)Nc1cc(-n2c(=O)ccc3cnc4ccc(-c5ccc(NS(C)(=O)=O)cc5)cc4c32)ccc1C [BMX-IN-1]
CATDS [1]: 0
CATDS [2]: 0
CATDS [3]: 0
CATDS [4]: 0
CATDS [5]: 0

CC(C)Nc1cc(-c2ccc3c(N)n[nH]c3c2)nc(N)n1 [GSK2221681A]
CATDS [1]: 0
CATDS [2]: 0
CATDS [3]: 0
potency estimated from few doses [4]: 149 nM
CATDS [4]: 0.2807
CATDS [5]: 0

O=c1cc(N2CCOCC2)nc2n(Cc3cccc(C(F)(F)F)c3)ccn12 [GSK2297543A]
CATDS [1]: 0
CATDS [2]: 0
CATDS [3]: 0
CATDS [4]: 0
CATDS [5]: 0

CCCN1CCC(c2ccc(Nc3nc(Nc4cc(F)ccc4C(N)=O)c4cc[nH]c4n3)c(OC)c2)CC1 [GSK1326255A]
CATDS [1]: 0
CATDS [2]: 0
CATDS [3]: 0
CATDS [4]: 0
CATDS [5]: 0

COc1ncc(-c2cc(-c3ncc(CN4C[C@@H](C)O[C@@H](C)C4)o3)c3cn[nH]c3c2)cc1NS(C)(=O)=O [GSK2292767]
CATDS [1]: 0
CATDS [2]: 0
CATDS [3]: 0
CATDS [4]: 0
CATDS [5]: 0

COc1cc(N2CCN(C(C)C)CC2)ccc1Nc1nc(Nc2ccc(F)cc2C(=O)NC[C@@H](O)CO)c2cc[nH]c2n1 [GSK1392956A]
CATDS [1]: 0
CATDS [2]: 0
CATDS [3]: 0
CATDS [4]: 0
CATDS [5]: 0

NC(CNC(=O)c1cc(Br)c(-c2ccnc3[nH]ccc23)s1)c1ccccc1 (stereo not shown) [GSK1322949A]
CATDS [1]: 0
CATDS [2]: 0
CATDS [3]: 0
potency estimated from few doses [4]: > 1000 nM
CATDS [4]: 0
CATDS [5]: 0

CN(C)C(=O)O[C@H]1CN[C@H](C#Cc2cc3ncnc(Nc4ccc(OCc5cccc(F)c5)c(Cl)c4)c3s2)C1 [GSK182497A]
CATDS [1]: 0
CATDS [2]: 0
CATDS [3]: 0
CATDS [4]: 0
CATDS [5]: 0

Nc1ncc(-c2ccc3nccc(-c4ccncc4)c3c2)cc1S(=O)(=O)N1CCCCC1 [GSK1693850A]
CATDS [1]: 0
CATDS [2]: 0
CATDS [3]: 0
CATDS [4]: 0
CATDS [5]: 0

CNS(=O)(=O)c1ccc(N(C)C)c(Nc2ncnc3cc(OC)c(OC)cc23)c1 [GSK114]
CATDS [1]: 0
CATDS [2]: 0
CATDS [3]: 0
CATDS [4]: 0
CATDS [5]: 0

CCC(NN(C)C)=C1C(=O)Nc2ccc(C(C)=O)cc21 [BI00036838]
CATDS [1]: 0
CATDS [2]: 0
CATDS [3]: 0
CATDS [4]: 0
CATDS [5]: 0

Cc1cccc(Nc2nc(NCCN)ncc2C(N)=O)c1 [GSK1292139B]
CATDS [1]: 0
CATDS [2]: 0
CATDS [3]: 0
potency estimated from few doses [4]: 164 nM
CATDS [4]: 0.21
CATDS [5]: 0

COc1cc2c(cc1Nc1nc(Nc3ccsc3C(N)=O)c3cc[nH]c3n1)N(C(=O)CN(C)C)CCC2 [GSK2110236A]
CATDS [1]: 0
CATDS [2]: 0
CATDS [3]: 0
CATDS [4]: 0
CATDS [5]: 0

CC(C(=O)NC1CCN(c2ccnc(Nc3ccc(F)cc3)n2)C1)c1ccc(Cl)cc1 (stereo not shown) [GSK1379713A]
CATDS [1]: 0
CATDS [2]: 0
CATDS [3]: 0
CATDS [4]: 0
CATDS [5]: 0

O=c1cc(N2CCOCC2)nc2n(Cc3cccc(Cl)c3Cl)c(C3CC3)nn12 [GSK2358994A]
CATDS [1]: 0
CATDS [2]: 0
CATDS [3]: 0
CATDS [4]: 0
CATDS [5]: 0

Cc1c(Cn2c3ccccc3n3c(=O)cc(N4CCOCC4)nc23)cccc1C(F)(F)F [GSK2306394A]
CATDS [1]: 0
CATDS [2]: 0
CATDS [3]: 0
CATDS [4]: 0
CATDS [5]: 0

Cc1ccc(NC(=O)Nc2ccccc2F)cc1-c1ccc(C(=O)Nc2ccncc2)cc1 [GSK1398477_KCGS]
CATDS [1]: 0.02269
CATDS [2]: 0
CATDS [3]: 0.01477
CATDS [4]: 0.01281
CATDS [5]: 0.0136

O=c1[nH]c2cc(Nc3ccc(F)cc3F)ccc2n1CC1CCCCC1 [BI00601000]
CATDS [1]: 0
CATDS [2]: 0
CATDS [3]: 0
CATDS [4]: 0
CATDS [5]: 0

CCNC(=O)O[C@H]1CN[C@H](C#Cc2cc3ncnc(Nc4ccc(OCc5cccc(F)c5)c(Cl)c4)c3s2)C1 [GSK192082A]
CATDS [1]: 0
CATDS [2]: 0
CATDS [3]: 0
CATDS [4]: 0
CATDS [5]: 0

Cc1c(Cn2c(C)c(C)n3c(=O)cc(N4CCOCC4)nc23)cccc1C(F)(F)F [GSK2328680_KCGS]
CATDS [1]: 0
CATDS [2]: 0
CATDS [3]: 0
CATDS [4]: 0
CATDS [5]: 0

CCN1CCN(Cc2ccc(C(=O)Nc3ccc(C)c(Oc4ccc5c(c4)CC(=O)N5)c3)cc2C(F)(F)F)CC1 [DDR1-in-1]
CATDS [1]: 0
CATDS [2]: 0
CATDS [3]: 0
CATDS [4]: 0
CATDS [5]: 0

CSc1nn2c(=O)cc(N3CCOCC3)nc2n1Cc1cccc(Cl)c1Cl [GSK2347225A]
CATDS [1]: 0
CATDS [2]: 0
CATDS [3]: 0
CATDS [4]: 0
CATDS [5]: 0

CN(C)S(=O)(=O)c1cc(-c2ccc3nccc(-c4cccc(S(N)(=O)=O)c4)c3c2)cnc1N [GSK1669921A]
CATDS [1]: 0
CATDS [2]: 0
CATDS [3]: 0
CATDS [4]: 0
CATDS [5]: 0

Cc1ccccc1Cn1ccn2c(=O)cc(N3CCOCC3)nc12 [GSK2269905A]
CATDS [1]: 0
CATDS [2]: 0
CATDS [3]: 0
CATDS [4]: 0
CATDS [5]: 0

CC(C)(C)OC(=O)NC1CCCN(c2cc(-c3ccc4c(N)n[nH]c4c3)nc(N)n2)C1 (stereo not shown) [GSK2286096A]
CATDS [1]: 0
CATDS [2]: 0
CATDS [3]: 0
CATDS [4]: 0
CATDS [5]: 0

COc1cc(Nc2nccc(N3CCC(NC(=O)C4COc5ccccc5O4)C3)n2)cc(OC)c1OC (stereo not shown) [GSK1379761A]
CATDS [1]: 0
CATDS [2]: 0
CATDS [3]: 0
potency estimated from few doses [4]: > 1000 nM
CATDS [4]: 0
CATDS [5]: 0
